Test results as given in US20190022114A1, “METHODS AND COMPOSITIONS FOR REDUCING BODY WEIGHT AND INCREASING GUT MOTILITY” (priority 2016, published 2019).

Assays:
[1] = test system: Wistar rats; details: 13 weeks, cited from earlier work
[2] = test system: LEPR (Leptin Receptor) mutants; assay: Weight loss and fat loss effect of D-ribose in mouse obesity model; type: in vivo; details: 48 days
Description: Classic obesity model LEPR (Leptin Receptor) mutants (Age 42 day, male) and wild-type FVB strain mice were used in the testing.
D-ribose was feed to mice in D-ribose water solution at concentrations indicated (75 mg/ml and 50 mg/ml). Control animals were feed with water. All animals were fed on normal diet. There was no restriction on the amount of liquid or food consumption.
The liquid and food consumption were measured at 4 day intervals. The actual D-ribose consumption for each animal was calculated based on its liquid intake volume.
Mouse body fat was measured using MiniSpec NMR Analyzer.
P-values were calculated using t-test (unpaired, 2 tails) for data points after 48 days of treatment.
Test results were shown in FIG. 1 and FIG. 2, wherein Square (▪) represents the treatment group, and Circle (●) represents control group. Classic obesity model LEPR (Leptin Receptor) mutants (Age 42 day, male) were used in the testing. The control group was fed with water. Animals were fed on normal diet.

[3] = test system: C57BL/6 mice; assay: Whole gut transit time (carmine gavage); type: in vivo, mouse; details: 0.5 ml 75 mg/ml oral gavage, p value=0.004
Description: D-ribose was administered to C57BL/6 mice of 8 weeks old. Before administering, mice were fasted for 18 hours with free access to water and housed on a mesh plate without bedding. The mice were orally fed with 0.5 ml carmine solution (6% carmine in 0.5% methylcellulose) containing either 75 mg/ml D-ribose or xylose. After oral force gavage, mice were returned to individually housed mesh bottom cages, which were placed on a white sheet. Whole gut transit time is the time taken from carmine meal gavage to the appearance of the first red fecal pellets.

O=C[C@H](O)[C@H](O)[C@H](O)CO [D-ribose]
NOAEL, females ([1]; female rats, 5% in diet): 4.4 g/kg body weight/day
NOAEL, males ([1]; male rats, 5% in diet): 3.6 g/kg body weight/day
no observed adverse effect level (NOAEL), concentration in the diet ([1]; rats, in diet): 5%
effect at up to 20% of diet ([1]; rats, up to 20% of diet (15.0 and 15.7 g/kg body weight/day males and females)): nutritional but not toxicological effect
fat gain (body fat measurement) ([2]; 50 mg/ml in water, 20.59 gram/kg/day, data not shown): reduced fat gain but not statistically significant
weight gain vs control animals ([2]; 50 mg/ml in water, 20.59 gram/kg/day, obese LEPR mutant male mice, p-value 0.001): statistically significantly decreased weight gain
body fat (NMR) vs control animals ([2]; 75 mg/ml in water, 30.03 gram/kg/day, obese LEPR mutant male mice, p-value 0.00015): fat loss
body weight vs control animals ([2]; 75 mg/ml in water, 30.03 gram/kg/day, obese LEPR mutant male mice, p-value 0.01): statistically significant weight loss
gut transition time vs xylose control [3]: shortened gut transition time
